From US10130619B2, “Amido thiadiazole derivatives as NADPH oxidase inhibitors” (GENKYOTEX SUISSE SA, priority 2014, dated 2018)

Target: hNOX1 (Homo sapiens (Human), UniProt Q9Y5S8)
Test: ROS production measurement on hNOX1 membranes (Amplex Red fluorescence assay, assay 1)
Format: biochemical
Settings: assay 1: membranes from CHO cells overexpressing hNox1, Amplex Red/HRP fluorescence, NADPH 30 μM; non linear regression (GraphPad Prism); read-out: Nox1 inhibitory constant Ki
Description: Reactive oxygen species (ROS) production generated by hNOX1 enzyme was measured by fluorescence in both cellular and membrane-based assays using the Amplex® Red reagent. In the presence of horseradish peroxidase (HRP), the Amplex® Red reagent (10-acetyl-3,7-dihydroxyphenoxazine, AR), which is a colorless and nonfluorescent derivative of dihydroresorufin, reacts with H2O2 with a 1:1 stoichiometry to produce highly fluorescent resorufin at an excitation and emission wavelengths of 544 nm and 590 nm, respectively.
After resuspension in sonication buffer (11% sucrose, 120 mM NaCl, 1 mM EGTA in PBS, pH 7.4), cells were broken by sonication and centrifuged (200 g, 10 min). The supernatant was layered onto a 17/40% (w/v) discontinuous sucrose gradient and centrifuged (150,000 g for 30 min). Membrane fractions were collected from the 17/40% interface, aliquoted in 10 μl samples and were stored at −80° C. Protein concentration was determined with Bradford reagent. Flavin Adenine Dinucleotide (FAD) (catalog # F6625-500MG), MgCl2 (catalog # M8266-100G), Phosphatidic Acid (PA) (catalog # P3591-50MG) were purchased from Sigma-Aldrich. […] NADPH (catalog #A1395, 0500) was purchased from Applichem. Amplex red (AR) (catalog # A22177) was purchased from Invitrogen. […] FLUOstar OPTIMA microplate reader was supplied by BMG Labtech (Germany). Zephyr® Compact Liquid Handling Workstation was supplied by PerkinElmer (Germany).
Assay 1: ROS Production Measurement on hNOX1 Membranes
All solutions were placed on ice and protected from light.
The NADPH was dissolved in water at a concentration of 12 mM and was transferred in a metal transfer plate kept at 4° C. The NADPH was added to the assay plate to initiate the reaction just before the measurement.
Serial dilution (1:3, 10 serial dilution) of the compounds was performed in 100% DMSO in 96 well polypropylene plate—Row B-H […], Row A, Column 1-10 contained reference compound. Starting concentration was 10^−2 M (10 mM). Final concentration in assay was 10^−4 M (100 μM). Compounds were diluted twice in PBS buffer by transferring 30 μl/well of PBS into 30 μl/well compounds sample in DMSO using Zephyr® Compact Liquid Handling Workstation. Control wells-columns 1 and 12-contained 60 μl DMSO in 50% PBS pH7.
Reaction mixture is dispensed using Zephyr® Compact Liquid Handling Workstation. 90 μl of mix with membrane were dispensed into 96 well black plates—Column 2-11, Column 1 Row A-D, Column 12 Row E-H. 90 μl of control mix were dispensed into assay plate—Column 1 Row E-H, Column 12 Row A-D, which are wells for measuring background signal. 2 μl of compounds were dispensed into each well of assay plate using Zephyr® Compact Liquid Handling Workstation. The reaction mixture with compounds was incubated in assay plates for 20 min at 37° C. in a Titramax microplate incubator with gentle agitation. 10 μl of NADPH is dispensed to the assay plate. Fluorescence reading was recorded with the FLUOstar OPTIMA microplate reader for 10 min at 37° C. (8 cycles, 1 cycle duration 55 sec).

Chain of hNOX1 (Q9Y5S8 whole entry): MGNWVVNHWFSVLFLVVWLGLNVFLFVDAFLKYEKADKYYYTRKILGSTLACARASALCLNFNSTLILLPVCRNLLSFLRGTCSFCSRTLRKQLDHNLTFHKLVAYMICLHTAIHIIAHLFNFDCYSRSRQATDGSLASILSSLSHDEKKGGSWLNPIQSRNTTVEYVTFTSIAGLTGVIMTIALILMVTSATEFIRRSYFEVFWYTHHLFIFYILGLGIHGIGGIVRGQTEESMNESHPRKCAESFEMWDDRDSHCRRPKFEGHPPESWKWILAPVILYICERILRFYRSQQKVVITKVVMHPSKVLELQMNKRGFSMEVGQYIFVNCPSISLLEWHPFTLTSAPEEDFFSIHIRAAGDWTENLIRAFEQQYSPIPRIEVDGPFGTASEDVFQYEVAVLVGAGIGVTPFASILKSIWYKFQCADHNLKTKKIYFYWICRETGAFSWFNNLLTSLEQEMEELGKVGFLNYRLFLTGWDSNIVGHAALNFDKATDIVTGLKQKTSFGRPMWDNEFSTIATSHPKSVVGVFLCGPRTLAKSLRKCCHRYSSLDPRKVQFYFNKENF
Chain of hNOX1 (P13498 whole entry partner): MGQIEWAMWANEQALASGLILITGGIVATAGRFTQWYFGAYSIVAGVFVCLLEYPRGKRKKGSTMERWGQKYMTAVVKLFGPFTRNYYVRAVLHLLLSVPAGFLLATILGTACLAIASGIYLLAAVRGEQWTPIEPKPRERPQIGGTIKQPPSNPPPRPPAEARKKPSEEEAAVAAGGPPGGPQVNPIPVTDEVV

SMILES | Ki [nM]
Cc1nc(O[C@@H](C)c2ccccc2)ccc1C(=O)Nc1nnc(-c2ccncc2)s1 [(43)] | 79
Cc1nc(OCc2ccccc2)ccc1C(=O)Nc1nnc(-c2ccncc2)s1 [(45)] | 77
COc1cc(C(=O)Nc2nnc(-c3ccncc3)s2)cnc1O[C@@H](C)c1ccccn1 [(46)] | 35
C[C@H](Oc1ncc(C(=O)Nc2nnc(-c3ccncc3)s2)cc1NCCN(C)C)c1ccccc1 [(51)] | 21
C[C@H](Oc1ncc(C(=O)Nc2nnc(-c3ccncc3)s2)cc1NCC1CCOCC1)c1ccccc1 [(52)] | 18
C[C@H](Oc1ncc(C(=O)Nc2nnc(-c3ccncc3)s2)cc1NCC1CCN(C)CC1)c1ccccc1 [(53)] | 19
C[C@H](Oc1ncc(C(=O)Nc2nnc(-c3ccncc3)s2)cc1NCCCN(C)C)c1ccccc1 [(63)] | 31
C[C@H](Oc1ncc(C(=O)Nc2nnc(-c3ccncc3)s2)cc1NCCO)c1ccccc1 [(65)] | 51
C[C@H](Oc1ncc(C(=O)Nc2nnc(-c3ccncc3)s2)cc1NCc1cn(C)cn1)c1ccccc1 [(66)] | 66
C[C@H](Oc1ncc(C(=O)Nc2nnc(-c3ccncc3)s2)cc1NC1CCN(C)CC1)c1ccccc1 [(67)] | 75
C[C@H](Oc1ncc(C(=O)Nc2nnc(-c3ccncc3)s2)cc1NCCN1CCOCC1)c1ccccc1 [(68)] | 72
C[C@H](Oc1ncc(C(=O)Nc2nnc(-c3ccncc3)s2)cc1N1CCN(C)CC1)c1ccccc1 [(69)] | 55
CNc1cc(C(=O)Nc2nnc(-c3ccncc3)s2)cnc1O[C@@H](CCN(C)C)c1ccccc1 [(75)] | 90
COc1cc(C(=O)Nc2nnc(-c3ccncc3)s2)ccc1O[C@@H]1CCc2ccccc21 [(80)] | 27
COc1cc(C(=O)Nc2nnc(-c3ccncc3)s2)ccc1OC1CCCc2ccccc21 (centres unmarked) [(82)] | 38
COc1cc(C(=O)Nc2nnc(-c3ccncc3)s2)ccc1OCc1cscn1 [(83)] | 80
CC(Oc1ccc(C(=O)Nc2nnc(-c3ccncc3)s2)cc1OCCN(C)C)c1ccccc1 (centres unmarked) [(85)] | 37
COCCOc1cc(C(=O)Nc2nnc(-c3ccncc3)s2)ccc1OC(C)c1ccccc1 (centres unmarked) [(86)] | 74
COc1cc(C(=O)Nc2nnc(-c3ccncc3)s2)ccc1OCc1cccnc1C [(89)] | 91
COc1cc(C(=O)Nc2nnc(-c3ccncc3)s2)ccc1OCc1ccc(C)cn1 [(90)] | 100
COc1cc(C(=O)Nc2nnc(-c3ccncc3)s2)ccc1OCc1cc(C)on1 [(91)] | 78
COc1ccc(COc2ccc(C(=O)Nc3nnc(-c4ccncc4)s3)cc2OC)cc1 [(92)] | 32
COc1cc(C(=O)Nc2nnc(-c3ccncc3)s2)ccc1OCc1ccccc1F [(93)] | 52
COc1cc(C(=O)Nc2nnc(-c3ccncc3)s2)ccc1OCc1ccc(F)cc1 [(96)] | 14
COc1cc(C(=O)Nc2nnc(-c3ccncc3)s2)ccc1OCc1cc(C2CC2)on1 [(98)] | 74

More lines, now with the values ahead:

Ki [nM] | SMILES
87 | COc1cc(C(=O)Nc2nnc(-c3ccncn3)s2)ccc1O[C@@H](C)c1ccccn1 [(102)]
13 | COc1cc(C(=O)Nc2nnc(-c3ccncc3F)s2)ccc1O[C@@H](C)c1ccccn1 [(103)]
19 | COc1cc(C(=O)Nc2nnc(-c3ccncc3F)s2)ccc1O[C@@H](CO)c1ccccc1 [(105)]
22 | COc1cc(C(=O)Nc2nnc(-c3ccncc3F)s2)ccc1O[C@@H](CN(C)C)c1ccccc1 [(106)]
92 | O=C(Nc1nnc(-c2ccncc2)s1)c1cnc(O[C@@H](CO)c2ccccc2)c(Cl)c1 [(108)]
75 | COc1cc(C(=O)Nc2nnc(-c3ccncn3)s2)ccc1OCc1ccccc1 [(111)]
37 | COc1cc(C(=O)Nc2nnc(-c3ccncn3)s2)cnc1O[C@@H](CN(C)C)c1ccccc1 [(114)]
110 | COc1cc(C(=O)Nc2nnc(-c3ccnc(C)c3)s2)ccc1O[C@@H](CN(C)C)c1ccccc1 [(115)]
46 | COc1cc(C(=O)Nc2nnc(-c3ccncc3)s2)ccc1O[C@@H](C)Cc1ccccc1 [(116)]
93 | COc1cc(C(=O)Nc2nnc(-c3ccncc3)s2)ccc1CN(C)c1ccccn1 [(120)]
35 | COc1cc(C(=O)Nc2nnc(-c3ccncc3)s2)ccc1Cn1ccc2ccccc21 [(121)]
71 | CCC(Oc1ccc(C(=O)Nc2nnc(-c3ccncc3)s2)cn1)c1ccccc1 (centres unmarked) [(134)]
47 | O=C(Nc1nnc(-c2ccncc2)s1)c1ccc(OC2CCc3ccccc32)nc1 (centres unmarked) [(136)]
78 | C[C@H](Nc1ccc(C(=O)Nc2nnc(-c3ccncc3)s2)cn1)c1ccccc1 [(149)]
15 | COc1cc(C(=O)Nc2nnc(-c3ccncc3)s2)ccc1OC1CCc2ncccc21 (centres unmarked) [(151)]
38 | COc1cc(C(=O)Nc2nnc(-c3ccncc3)s2)ccc1OC1COc2ccccc21 (centres unmarked) [(152)]
33 | COc1cc(C(=O)Nc2nnc(-c3ccncc3)s2)ccc1OC(c1ccccc1)C1CC1 (centres unmarked) [(154)]
110 | COc1cc(C(=O)Nc2nnc(-c3ccncn3)s2)ccc1O[C@@H](C)c1ccccc1 [(157)]
22 | COc1cc(C(=O)Nc2nnc(-c3ccncc3)s2)ccc1OC1Cc2ccccc2C1 [(158)]

Ki [nM] | SMILES
79 | COc1cc(C(=O)Nc2nnc(-c3ccncc3)s2)ccc1OCCc1ccccc1 [(161)]
95 | COc1cc(C(=O)Nc2nnc(-c3ccncc3)s2)ccc1OCc1ccn(C)n1 [(162)]
100 | O=C(Nc1nnc(-c2ccncc2)s1)c1ccc(OCc2ccccc2)cc1F [(168)]
96 | CN(C)C(=O)[C@H](Cc1ccccc1)Oc1ccc(C(=O)Nc2nnc(-c3ccncc3)s2)cn1 [(174)]
85 | C[C@H](COc1ccc(C(=O)Nc2nnc(-c3ccncc3)s2)cn1)c1ccccc1 [(178)]
32 | COc1ccc(CCCOc2ccc(C(=O)Nc3nnc(-c4ccncc4)s3)cn2)cc1 [(180)]
37 | Cc1cc(C(=O)Nc2nnc(-c3ccncc3)s2)cnc1O[C@@H](CN1CCOCC1)c1ccccc1 [(182)]
55 | COCC(Oc1ccc(C(=O)Nc2nnc(-c3ccncc3)s2)cc1OC)c1ccccc1 (centres unmarked) [(183)]
89 | COc1cc(C(=O)Nc2nnc(-c3ccncc3)s2)ccc1O[C@H](CN1CCOCC1)c1ccccc1 [(185)]
55 | O=C(Nc1nnc(-c2ccncc2)s1)c1ccc(O[C@@H](CN2CCC(F)(F)C2)c2ccccc2)nc1 [(187)]
24 | COc1cc(C(=O)Nc2nnc(-c3ccncc3)s2)ccc1O[C@@H](CO)c1ccc(F)cc1 [(197)]
25 | COc1cc(C(=O)Nc2nnc(-c3ccncc3)s2)ccc1O[C@@H](CN(C)C)c1ccc(F)cc1 [(198)]
47 | COc1cc(C(=O)Nc2nnc(-c3ccncc3)s2)ccc1O[C@H](CO)c1ccc(F)cc1 [(199)]
110 | COc1cc(C(=O)Nc2nnc(-c3ccncc3)s2)ccc1O[C@H](CN(C)C)c1ccc(F)cc1 [(200)]
18 | CC(Oc1ccc(C(=O)Nc2nnc(-c3ccncc3)s2)cc1OCC1CCNCC1)c1ccccc1 (centres unmarked) [Example 1, 4-(1-phenylethoxy)-3-(piperidin-4-ylmethoxy)-N-(5-(pyridin-4-yl)-1,3,4-thiadiazol-2-yl)benzamide]
22 | COc1cc(C(=O)Nc2nnc(-c3ccncc3)s2)ccc1O[C@@H](CO)c1ccccc1 [Example 7, (R)-4-(2-hydroxy-1-phenylethoxy)-3-methoxy-N-(5-(pyridin-4-yl)-1,3,4-thiadiazol-2-yl)benzamide]
29 | COc1cc(C(=O)Nc2nnc(-c3ccncc3)s2)ccc1O[C@@H](CCN1CCCC1)c1ccccc1 [Example 9, (S)-3-methoxy-4-(1-phenyl-3-(pyrrolidin-1-yl)propoxy)-N-(5-(pyridin-4-yl)-1,3,4-thiadiazol-2-yl)benzamide]
49 | COc1cc(C(=O)Nc2nnc(-c3ccncc3)s2)ccc1O[C@@H](CN1CCCC1)c1ccccc1 [Example 10, (R)-3-methoxy-4-(1-phenyl-2-(pyrrolidin-1-yl)ethoxy)-N-(5-(pyridin-4-yl)-1,3,4-thiadiazol-2-yl)benzamide]
